Assay results reported in patent publication US20230296590A1, “Devices and Methods to Induce Adult type Maturation of Human Pluripotent Stem Cell Derived Cardiomyocytes” (priority 2022, published 2023).
Entries after “also recorded” stand apart in the source; their conditions may differ. Bridge positions count the residues as written; N and C are the ends. Ends that are not written are not given here.

Legend:
Format in all cases: cell-based, human
[1] = tested on: hiPSC-CMs; assay: Optical recording of action potential with genetically encoded voltage indicators (Varnam, Arclight); details: cells on CMM
Source text: Cyto-calcium, Action potential and redox handling. Cytoplasmic calcium and redox status of iPSC-CMs using spinning disk confocal microscope (Olympus/Andor Revolution XD) was monitored. 3rd gen. lentiviral probes using ViraPower™ Lentiviral mix was generated and transduced iPSC-CMs using MOI 5 (multiplicity of infection) that generated good signal to noise ratio. Cytoplasmic targeted roGFP-Grx1 probes(Gutscher et al., 2008), Calcium probe (genetically encoded Ca^2+ indicators (GECIs)-GCamP6f(Hubbi et al., 2013), Arclight(Jin et al., 2012) and Varnam(Kannan et al., 2018) were obtained from Addgene and transferred to pENTR™/SD/D-TOPO® vector using PCR. The vector was sequence verified and then transferred to pLEX_307 vector (Addgene plasmid #41392) that contains the EFlα promoter using the LR reaction. […] The virus was generated for each probe in HEK293-FT cells using an optimized mix of three packaging plasmids (pLP1, pLP2, and pLP/VSVG). The virus was concentrated using PEG-it™ Virus Precipitation Solution (SBI biosciences) that also removes HEK293-FT cell medium.
To monitor the florescence signal from cells transduced with probes, cells were plated at a density of 200,000 per cm^2 on cultured surfaces for at least 10-15 days prior to imaging, to achieve cell-cell coupling. […]
Florescence from cells (transduced with probes) was collected separately at a […] using an electron-multiplying charge-coupled device (EMCCD) camera using Andor Revolution X1 Spinning Disk confocal inverted microscope. […] ROS (roGFP2-Grx) probes were excited with 405 nm and 488 nm laser and emission was detected using bandpass filter of 500 nm-554 nm. […] Recovery of glutathione pool was monitored for 180-240 sec before the utilization of diamide (oxidized) and DTT (reduced) to obtain min and max signal. […] Cells transduced with cytoplasmic GCamp6f were excited at 488 nm and emission was detected using bandpass filter of 500 nm-554 nm. […] The data was analyzed using image J (NIH).

[2] = tested on: hiPSC-CMs; assay: Sarcoplasmic reticulum calcium content, caffeine-induced Ca2+ release, Fura2 imaging; details: 10 mM
Protocol: To investigate calcium content of the sarcoplasmic reticulum (SR), Fura2 (ThermoFisher 3 uM) loaded cells were perfused with caffeine. Cells were initially perfused with modified Tyrode solution at 37C (pH 7.4) containing (in mM) 130 NaCl, 5 KCl, 1 MgCl2, 1.2 CaCl2, 20 Na-HEPES, 10 glucose, 1 pyruvate, 0.1% fatty acid free-BSA. After pacing the cells at 0.5 Hz for 30-40 sec, cells were perfused with the modified Tyrode buffer containing caffeine (10 mM). Images were analyzed using image J (NIH). Line plots (trace plots) were generated for both action potential and calcium transients by calculating average intensity (and standard deviation) from 3 biological batches with >100 cells for each timepoint and plotting it against the time (using R).

[3] = tested on: hiPSC-CMs; assay: Acute pathological hypertrophy model (endothelin-1 treatment), functional evaluation; details: for effect on FAO / effect on OxPhos / effect on glycolysis: 10 nM, 48 hrs
Protocol: Human iPSC culture and cardiac differentiation. Human iPSCs (WTC-11) were cultured using chemically defined medium and published protocols (Burridge et al., 2014; Tohyama et al., 2013). Undifferentiated iPSCs were seeded (125,000 cells per cm^2) on Geltrex (ThermoScientific)-coated six-well plates and maintained in E8 medium (Life Technologies) for 4 days when they reached 80-85% confluence. Medium was then changed to cardiac differentiation medium (CDM), consisting of RPMI 1640 medium (11875, ThermoScientific), 500 μg/ml O. sativa—derived recombinant human albumin (A9731, Sigma-Aldrich), and 220 μg/ml L-ascorbic acid (A4544-Sigma-Aldrich), containing B27 supplement-insulin free (A1895601 ThermoScientific) to initiate differentiation. On d0-d2, medium was supplemented with 6 μM CHIR99021 (LC Laboratories) for induction of mesoderm. On d4-d5, medium was supplemented with 10 uM IWR (Selleck Chemicals) for cardiac differentiation. Contracting cells are typically noted, starting on d7-d8. To purify cardiac myocytes, a variant of RPMI 1640 medium without D-glucose (11879, Life Technologies) was supplemented with 4 mM sodium lactate (L4263, Sigma-Aldrich) for 2 days on day 10 of differentiation followed by culture in cardiac media, containing B-27™ Supplement with insulin (17504001, ThermoScientific) in CDM medium (Tohyama et al., 2013). Cells were dissociated on d13-d14 using TrypLE (ThermoScientific) and plated/cultured on either flat/anisotropic cell culture surfaces for 15-16 further days (d30 for flat and CMM) or 45 days (d60 for flat culture surface) in cardiac culture media. Cardiac culture media was used in all the conditions from day 13-d14 onwards, and it was composed of RPMI-1640, lipid-enhanced Cellastium S, 220 μg/ml L-ascorbic acid and B27 with insulin. Control flat tissue-culture surfaces were coated with fibronectin at a concentration of 4 μg/cm^2. For hypertrophy induction, day 30 differentiated cells were treated with 10 nM endothelin 1 (E7764 Millipore Sigma) for 48 hrs in cardiac culture media.
Mitochondrial respiration. Cellular energetics was monitored using the Seahorse Bioscience XF instrument in intact cells (non-permeabilized cells) and permeabilized cells(Afzal et al., 2017; Salabei et al., 2014). Intact cell respiration was monitored to evaluate the contribution of oxidative phosphorylation versus glycolysis, whereas permeabilized cell respiration was used to monitor electron transport chain (ETC) complex function/activity using ETC complex specific substrates and fatty acid oxidation.
For permeabilized cell respiration, iPSC-CMs were permeabilized using […] of Seahorse XF Plasma Membrane Permeabilizer (Part #102504-100). In permeabilized cells only OCR is measured. Mitochondria respiration were assayed using Buffer (pH 7.2) containing 137 mM KCl, 2 mM KH2PO4, 0.5 mM EGTA, 2.4 mM MgCl2, 20 mM HEPES with 0.2% fatty acid-free BSA (Sigma). Respiration rates were normalized to the protein concentration using BCA assay. Complex I respiration were evaluated by 5 mM glutamate and 5 mM malate (G/M) to evaluate State 4 respiration; 4 mM ADP was then injected to evaluate State 3 respiration. Maximal respiratory capacity (uncoupled mitochondria) was measured by injecting […]. Coupling of Electron Transport Chain respiration to ATP synthesis were evaluated using the ATP synthase inhibitor oligomycin (4 uM). Complex II respiration were measured using 5 mM succinate. Fatty acid oxidation was measured by injecting 200 uM of Palmitoyl-1-carnitine chloride/2.5 mM Malate and assessing the increase in OCR.
Florescence from cells (transduced with probes) was collected separately at a […] using an electron-multiplying charge-coupled device (EMCCD) camera using Andor Revolution X1 Spinning Disk confocal inverted microscope. Data was acquired with 2×2 pixel binning. ROS (roGFP2-Grx) probes were excited with 405 nm and 488 nm laser and emission was detected using bandpass filter of 500 nm-554 nm. […]

Compound: CN(CCOc1ccc(NS(C)(=O)=O)cc1)CCc1ccc(NS(C)(=O)=O)cc1 [Dofetilide]
- tolerance of cells to 10 nM dose ([1]; 10 nM): fail to tolerate
- effect on action potential ([1]; Dofetilide IKr 3 nM): AP prolongation and early after depolarization (EAD); also recorded: appearance of EAD and APD prolongation

Compound: CCN(CC)CC(=O)Nc1c(C)cccc1C [Lidocaine]
- reduction of beat frequency ([1]; Lidocaine INa 100 um, 2 biological batches, n=30): ~40%

Compound: Cn1c(=O)c2c(ncn2C)n(C)c1=O [caffeine]
- calcium amplitude following caffeine exposure (SR load) ([2]; cells matured on CMM): significant increase in amplitude
- calcium release from SR following caffeine exposure ([2]; d30 cells): failed to demonstrate the calcium release

Compound: endothelin 1 (CSCSSLMDKECVYFCHLDIIW; disulfide 1-15, 3-11; ends not checked; UniProt P05305 53-73, looked up) [ET-1, pathological hypertrophy stimulus (E7764 Millipore Sigma)]
- effect on action potential duration ([3]; both d30 and CMM): increase
- effect on beating frequency ([3]; both d30 and CMM): decrease
- effect on Ca2+ peak amplitude ([3]; cells on CMM): no significant effect
- effect on oxidative stress handling (roGFP2 after H2O2) ([3]; cells on CMM): unperturbed
- effect on FAO ([3]; cells on CMM): reduction
- effect on OxPhos ([3]; cells on CMM): no effect
- effect on glycolysis ([3]; cells on CMM): slight increase
- effect on respiratory control ratio (state 3/state 4) ([3]; cells on CMM, acute treatment): not affected
- effect on Ca2+ peak amplitude ([3]; d30 cells): increase in peak amplitude
- effect on oxidative stress handling (roGFP2 after H2O2) ([3]; d30 cells): reduced oxidative stress handling
- effect on FAO ([3]; d30 cells): increase
- effect on OxPhos ([3]; d30 cells): significantly increased
- effect on glycolysis ([3]; d30 cells): significantly increased
